Measured values published in article PMC4438233, “Antibacterial effects of Traditional Chinese Medicine monomers against Streptococcus pneumoniae via inhibiting pneumococcal histidine kinase (VicK)” (Frontiers in Microbiology, 2015).
Several values for one entry are separate records, joined by “and”; a condition that tells them apart may be missing. Equal entries are not always repeated. Where two headings read alike, the source gives them in different places. Marks after values point to notes of the source that are not given here.

Columns and labels:
S. pneumoniae = experiment: Checkerboard test with erythromycin or tetracycline against S. pneumoniae; format: cell-based, Streptococcus pneumoniae
Method: The antimicrobial effects of different combinations of two antimicrobial agents were assayed using the checkerboard test (Bajaksouzian et al., [1997]). Each experiment was repeated thrice. […] The FIC index (FICI) was calculated using the following formula:
(§1) (2) FIC=FICA+FICB=[A]/MICA+[B]/MICB
(§2) where [A] and [B] are the concentrations of drugs A and B, respectively; MICA and FICA are the MIC and FIC of drug A for the organism, respectively; and MICB, and FICB are the MIC and FIC of drug B for the organism, respectively. The FIC index obtained was interpreted as follows: =0.5, synergy; FIC > 2.0, antagonism (Gupta and Kohli, [2003]).

[1] = test system: S. pneumoniae NCTC7466 biofilm; experiment: Biofilm-killing assay (crystal violet); format: cell-based, Streptococcus pneumoniae; conditions: crystal violet staining; 15.6–2000 μM; MIC or sub-MIC levels
Method: Biofilm formation was detected using a semiquantitative plate assay (Moscoso et al., [2006]). 10^6 CFU of D39 was incubated in C+Y medium for 6 h in a 96-well plate at 37°C. Then removed the planktonic cells, fresh C+Y medium containing the serially diluted drugs was added to each well and incubated for another 12 h at 37°C. The wells were washed gently three times with phosphate-buffered saline (PBS) and then stained with 1% (w/v) crystal violet. 200 μL methanol was added to dissolve the precipitate and determine the absorbance of the wells at 590 nm using a spectrophotometer (DTX880, Beckman Coulter, USA). The values of biofilm formation were normalized for absorbance, and the percentages were calculated in relation to control. The experiment was repeated twice.

[2] = test system: Penicillin-resistant S. pneumoniae strains; experiment: Checkerboard test with penicillin against penicillin-resistant S. pneumoniae; format: cell-based, Streptococcus pneumoniae; conditions: Streptococcus pneumoniae, agent alone
Method: (§3) Minimum inhibitory concentration (MIC) assays for the antibacterial activities of the compounds were performed according to the standard […] method of the Clinical and Laboratory Standards Institute of America. MIC testing of drug-resistant S. pneumoniae, drug-resistant S. aureus, streptococci and antimicrobial combination was also performed using the same method. Briefly, the drugs were serially diluted 2-fold into eight wells with C+Y medium, yielding final concentrations ranging from […]. Then 10^6 CFU bacteria were added to each well. Inoculated medium containing 1% DMSO served as a bacterial growth control, whereas uninoculated medium served as a sterility control. The plates were incubated at 37°C for 12–16 h. […] The experiment was repeated three times.
(§4) The antimicrobial effects of different combinations of two antimicrobial agents were assayed using the checkerboard test (Bajaksouzian et al., [1997]). Each experiment was repeated thrice. The in vitro interaction between the five drugs with PEN was quantified by the fractional inhibitory concentration (FIC). The FIC index (FICI) was calculated using the following formula:
as §1, §2

S. pyogenes = experiment: MIC against S. pyogenes; format: cell-based; conditions: Streptococcus pyogenes
Method: as §3

S. aureus = experiment: Checkerboard test with penicillin against S. aureus; format: cell-based, Staphylococcus aureus; conditions: for MIC: Staphylococcus aureus; for reduction of MIC in combination with PEN: four strains of MRSA
Method: as §3, §4, §1, §2

[3] = test system: Methicillin resistant S. aureus; experiment: MIC against methicillin resistant S. aureus; format: cell-based; conditions: Staphylococcus aureus
Method: as §3

S. pneumoniae NCTC7466 [4] = experiment: MIC against S. pneumoniae NCTC7466 (D39); format: cell-based; conditions: Streptococcus pneumoniae
Method: as §3

S. mutans = experiment: MIC against S. mutans; format: cell-based; conditions: Streptococcus mutans
Method: as §3

S. pneumoniae NCTC7466 [5] = experiment: Mouse sepsis model, survival time; format: in vivo, BALB/c mice; conditions: i.p. infection 1 × 10^3 CFU; drug i.p. thrice a day for 3 d; untreated control 28.8 ± 1.25
Method: Female BALB/c mice (12–15 per group) aged 4–6 weeks were used to evaluate the antimicrobial effects of the compounds in vivo. In sepsis models, the mice were intraperitoneally infected with 100 μL S. pneumoniae NCTC7466 strain suspension (1 × 10^3 CFU). […] Two control groups were injected with 100 μL 1% DMSO (dissolved the drugs, negative control) or PEN (0.42 mg/kg/d, positive control) following the same injection route. The result was expressed as cumulative survival times following 7 d of observation.

Cytotoxicity assay (MTT) = format: cell-based; conditions: African green monkey
Method: The cytotoxicity of the drugs to Vero cells (African green monkey kidney cells) was detected as previously described (Huang et al., [2012]) with minor modifications. In 96-well cell culture plates, the cells (~10^3 cells per well) were exposed to the serially diluted drugs for 48 h. Then, relative cell numbers were assayed by co-incubation with 3-(4, 5-dimethylthiazol-2-yl)-2, 5-diphenyltetrazolium bromide for 4 h at 37°C in 5% CO2. Purple formazan salts were dissolved with DMSO after incubation. The absorbance of each well was measured at 595 nm and then converted to percentages of the control (cells treated with 1% DMSO). The concentration of the derivatives with 50% cytotoxicity for Vero cells (CC50) was calculated using GraphPad Prism 5 (San Diego, CA).

[6] = test system: clinical S. pneumoniae 19F (CMCC31693); experiment: Mouse colonization model, serotype 19F; format: in vivo, BALB/c mice; conditions: for Mean log CFU at site of infection: 19F; for reduction in 19F bacterial numbers: at 24 h
Method: In colonization models, the mice were intranasally challenged by 20 μL of clinical drug-resistant strains (pneumococcal serotype 19F or 19A, 1.5 × 10^8 CFU). An hour later, the mice were intraperitoneally injected with 100 μL drugs (2 × MIC) alone or in combination with PEN (2 × MIC). These injections were continued thrice a day for 3 d. Nasal wash and lung tissues were obtained to analyze the bacteria load at 24, 48, and 72 h after drug infection. Then 100 μL aliquots of the samples diluted were plated on blood agar plates. The colonies were counted after incubation overnight at 37°C with 5% CO2.

S. pseudopneumoniae = experiment: MIC against S. pseudopneumoniae; format: cell-based; conditions: Streptococcus pseudopneumoniae
Method: as §3

S. mitis = experiment: MIC against S. mitis; format: cell-based; conditions: Streptococcus mitis
Method: as §3

[7] = in combination with Erythromycin
[8] = in combination with Tetracycline
[9] = NW (nasal wash), 24 h, i.p. three times a day for 3 days, control 6.72

## CCCCCCCCCCCCOC(=O)c1cc(O)c(O)c(O)c1 [Compound 5, Dodecyl gallate]
S. pneumoniae; [7]
  FICI: 0.31
  Outcome: Synergy (=0.5, synergy)
S. pneumoniae; [8]
  FICI: 0.18
  Outcome: Synergy (=0.5, synergy)
[1]
  inhibition of biofilm formation: inhibit biofilm formation at sub-MIC
[2]; strain 652336, read-out: MIC, Alone
  MIC: 84.4 µg/mL
[2]; strain 736007, read-out: MIC, Alone
  MIC: 337 µg/mL
[2]; strain 8364981, read-out: MIC, Alone
  MIC: 168 µg/mL
[2]; strain 12092624, read-out: MIC, Alone
  MIC: 84.4 µg/mL
S. pyogenes; S. pyogenes clinical isolate, 10^6 CFU/ml, read-out: MIC
  MIC: 42 µg/mL
S. aureus; ATCC29213, S. aureus ATCC29213, agent alone, read-out: MIC, Alone
  MIC: 168 µg/mL
S. aureus; MRSA8506305, agent alone, read-out: MIC, Alone
  MIC: 337 µg/mL
S. aureus; MRSA8548991, agent alone, read-out: MIC, Alone
  MIC: 84.4 µg/mL
S. aureus; MRSA, MRSA 8569082, agent alone, read-out: MIC, Alone
  MIC: 84.4 µg/mL
S. aureus
  reduction of MIC in combination with PEN: 2 fold
[3]; Methicillin resistant S. aureus (4 isolates), 10^6 CFU/ml, read-out: MIC
  MIC: 84.4 to 336 µg/mL
S. pneumoniae NCTC7466 [4]; S. pneumoniae NCTC7466 (D39), read-out: MIC
  MIC: 21 µg/mL
S. pneumoniae NCTC7466 [4]; S. pneumoniae NCTC7466 (D39), value in parentheses, read-out: MIC
  MIC: 62 µM
S. mutans; S. mutans clinical isolate, 10^6 CFU/ml, read-out: MIC
  MIC: 42 µg/mL
S. pneumoniae NCTC7466 [5]
  Mean survival of mice ± SEM: 60.2 ± 7.3 h
Cytotoxicity assay (MTT); Vero cells (African green monkey kidney cells)
  CC50 at 48 h: 6.45 mM
[6]; Lung, 24 h, control 2.82
  Mean log CFU at site of infection: 3.9 (0.0001)^b log CFU
[6]; Lung, 48 h, control 7.57
  Mean log CFU at site of infection: 3 (0.006)^b log CFU
[6]; Lung, 72 h, control 4.95
  Mean log CFU at site of infection: 2.8 (<0.0001)^b log CFU
[6]; [9]
  Mean log CFU at site of infection: 2.16 log CFU
[6]; NW, 48 h, control 6.27
  Mean log CFU at site of infection: 5.55 log CFU
[6]; NW, 72 h, control 7.09
  Mean log CFU at site of infection: 5.82 (<0.0001)^b log CFU
[6]
  reduction in 19F bacterial numbers: one-log reduction
S. pseudopneumoniae; S. pseudopneumoniae clinical isolate, 10^6 CFU/ml, read-out: MIC
  MIC: 42 µg/mL
S. mitis; S. mitis clinical isolate, 10^6 CFU/ml, read-out: MIC
  MIC: 338 µg/mL

## CC(C)=CCCC1=CC(=O)c2c(O)ccc(O)c2C1=O [Compound 3, Deoxyshikonin]
S. pneumoniae; [7]
  FICI: 0.37
  Outcome: Synergy (=0.5, synergy)
S. pneumoniae; [8]
  FICI: 0.125
  Outcome: Synergy (=0.5, synergy)
[1]
  inhibition of biofilm formation: inhibit biofilm formation at sub-MIC
[2]; read-out: MIC, Alone, strain 652336
  MIC: 136 µg/mL
[2]; read-out: MIC, Alone, strain 736007
  MIC: 136 µg/mL
[2]; read-out: MIC, Alone, strain 8364981
  MIC: 136 µg/mL
[2]; read-out: MIC, Alone, strain 12092624
  MIC: 136 µg/mL
S. pyogenes
  MIC: 8.5 µg/mL
S. aureus; MRSA8548991, agent alone
  MIC, Alone: 34 µg/mL
S. aureus; ATCC29213, read-out: MIC, Alone
  MIC: 34 µg/mL
S. aureus; MRSA, read-out: MIC, Alone
  MIC: 68 µg/mL
S. aureus; read-out: MIC, Alone
  MIC: 34 µg/mL
S. aureus
  reduction of MIC in combination with PEN: 2 fold
[3]
  MIC: 34 to 68 µg/mL
S. pneumoniae NCTC7466 [4]; NCTC7466
  MIC: 17 µg/mL and 62 µM
S. mutans
  MIC: 34 µg/mL
S. pneumoniae NCTC7466 [5]
  Mean survival of mice ± SEM: 50.6 ± 4.1 h
Cytotoxicity assay (MTT); Vero cells
  CC50 at 48 h: 4.68 mM
[6]; Lung, 24 h, control 2.82
  Mean log CFU at site of infection: 1 (<0.0001)^b log CFU
[6]; Lung, 48 h, control 7.57
  Mean log CFU at site of infection: 1 (0.001)^b log CFU
[6]; Lung, 72 h, control 4.95
  Mean log CFU at site of infection: 2.5 (<0.0001)^b log CFU
[6]; [9]
  Mean log CFU at site of infection: 3.30 log CFU
[6]; NW, 48 h, control 6.27
  Mean log CFU at site of infection: 4.6 (0.0002)^b log CFU
[6]; NW, 72 h, control 7.09
  Mean log CFU at site of infection: 5.52 (<0.0001)^b log CFU
[6]
  reduction in 19F bacterial numbers: one-log reduction
S. pseudopneumoniae
  MIC: 136 µg/mL
S. mitis
  MIC: 125 µg/mL
